Key:
MDR1 (P-glycoprotein) = assay: MDCK permeability/efflux; assay type: in vitro ADME; settings: dog
Protocol: MDR1-MDCK cells (Solvo Biotechnology) were seeded onto 24-well Transwell plates at 2.35×10^5 cells per well and used in confluent monolayers after a 3 day culture at 37° C. under 5% CO2. For cell types, test and control compounds (propranolol, vinblastine) were added (1 μM, 0.1% DMSO final, n=2) to donor compartments of the Transwell plate assembly in assay buffer (Hanks balanced salt solution supplemented with 25 mM HEPES, adjusted to pH 7.4) for both apical to basolateral (A>B) and basolateral to apical (B>A) measurements. Incubations were performed at 37° C., with samples removed from both donor and acceptor chambers at T=0 and 1 hour and compound analysed by mass spectrometry (LC-MS/MS) including an analytical internal standard.
Apparent permeability (Papp) values were determined from the relationship: Papp=(CompoundAcceptor T=end/(CompoundDonor×VDonorγIncubation Time)×VDonor Area×60×10^−6 cm/s
Where V is the volume of each Transwell compartment (apical 125 μL, basolateral 600 μL), and concentrations are the relative MS responses for compound (normalized to internal standard) in the donor chamber before incubation and acceptor chamber at the end of the incubation. Area=area of cells exposed for drug transfer (0.33 cm^2). Efflux ratio (Papp B>A /Papp A>B) was calculated from the mean Papp values in each direction. […] Lucifer Yellow (LY) was added to the apical buffer in all wells to assess viability of the cell layer. […] Compound recovery from the wells was determined from MS responses (normalized to internal standard) in donor and acceptor chambers at the end of incubation compared to response in the donor chamber pre-incubation.

[1] = Hepatocyte stability, CLint (in vitro hepatocytes), rat; assay type: in vitro ADME; settings: pooled cryopreserved hepatocytes, 1.0 million cells/mL, 37° C., read-out: in vitro intrinsic clearance (CLint)
Protocol: Hepatocyte stability assays were performed using pooled cryopreserved hepatocytes (Bioreclamation). Test compounds prepared in DMSO, were incubated at an initial concentration of 1 μM (0.25% DMSO final, n=2) with hepatocytes at cell densities of 1.0 million cells/mL at 37° C. Aliquots were removed at 0.5, 5, 10, 15, 30, 60 and 120 minutes for termination of reactions and compound extraction with acetonitrile containing an analytical internal standard (0.5 μM carbamazepine). Samples were centrifuged and the supernatant fractions analysed for parent compound by mass spectrometry (LC-MS/MS). The amount of compound remaining (expressed as %) was determined from the MS response in each sample relative to that in the T=0 samples (normalised for internal standard). Ln plots of the % remaining were used to determine the half-life for compound disappearance using the relationship: Half-Life(min)=−0.693/λ (where λ is the slope of the Ln % remaining vs time curve).

[2] = system: scPCP treated female Lister Hooded rats; assay: Attenuation of sub-chronic PCP-induced deficit in the operant reversal learning task; assay type: in vivo, rat; settings: p.o., 1 hour ptt
Protocol: Investigate the ability of Example 1 (1, 3, 10 and 30 mg/kg, p.o., 1 hour pre-treatment time ptt) to attenuate the disruption of a cognitive task induced by sub-chronic treatment with phencyclidine (scPCP) in female Lister Hooded rats.
Female Lister Hooded rats were used for this experiment. The average weight of rats at the time of testing was 294 g±29 g. Rats were housed in groups of 3-5 under standard laboratory conditions under a 12 hr light: dark cycle (lights on at 0700 hr), and food restricted to 90% of free-feeding bodyweight (12 g of food per rat per day). Testing was carried out in the light phase. Rats were randomly assigned to two treatment groups and received vehicle, n=8 (0.9% saline solution, i.p.) or PCP, n=48 (2 mg/kg, i.p. twice daily for 7-days). On the day of testing, rats were randomly assigned to seven treatment groups (n=6-8 per group) to receive an acute treatment with Example 1 (1, 3, 10 and 30 mg/kg, p.o., 1 hour ptt) or vehicle. […]
Following habituation to the operant chambers, rats were trained to respond for food on an FR1 (Fixed Ratio 1) schedule of reinforcement with both levers active. […] Each session lasted 20 minutes and counts were recorded on each lever. […]
The day before each reversal learning task session, a full […] operant training session (as described above) was conducted to ensure stable responding. […] During this period, responses on both correct and incorrect levers were recorded. […] Responses made on the correct and incorrect levers were again recorded. […]
Data are presented as percent correct response (±S.E.M) with values for the initial and reversal phases are presented for the different drug treatment groups (FIG. 2). The percentage correct response data were used to determine whether there was a significant effect of drug on response accuracy (e.g. that might reflect cognitive dysfunction); Statistical significance was assumed when P<0.05 and was determined using one-way ANOVA in order to detect main effect of drug treatment in the initial and reversal phases.

**Q.** For CC(C)(C)NC(=O)C1CCN([C@H]2C[C@H]3CC[C@@H](C2)N3c2nc(C(F)(F)F)no2)CC1 [Example 1, N-tert-butyl-1-{(1R,3r,5S)-8-[3-(trifluoromethyl)-1,2,4-oxadiazol-5-yl]-8-azabicyclo[3.2.1]octan-3-yl}piperidine-4-carboxamide], which Papp A→B at 1 h, 1 μM (MDR1 (P-glycoprotein); apical to basolateral, 1 μM, pH 7.4, 1 hour, read-out: Apparent permeability (Papp) A−B) is on record?
**A.** 66 ×10⁻⁶ cm/s

**Q.** And the Papp B→A at 1 h, 1 μM (MDR1 (P-glycoprotein); basolateral to apical, 1 μM, pH 7.4, 1 hour, read-out: Apparent permeability (Papp) B−A)?
**A.** 77 ×10⁻⁶ cm/s

**Q.** What about the efflux ratio at 1 h, 1 μM (MDR1 (P-glycoprotein); pH 7.4, read-out: B−A/A−B efflux ratio) of the same molecule?
**A.** 1.2

**Q.** And the hepatocyte CLint at 1 μM [1]?
**A.** 8 µL/min/1e6 cells

**Q.** What about the “percent correct responding in the reversal phase vs scPCP group” value (“percent correct responding” for short) ([2]; 1 mg/kg, P<0.05) of the same molecule?
**A.** increased percent correct responding

**Q.** What about the “percent correct responding” value ([2]; 3 mg/kg, P<0.05) of the same molecule?
**A.** increased percent correct responding

**Q.** What about the “percent correct responding” value ([2]; 10 mg/kg, P<0.01) of the same molecule?
**A.** increased percent correct responding

Source: patent US11999745B2, “Pharmaceutical compounds” (Heptares Therapeutics Limited, priority 2020, dated 2024)
